{"source": "patent US5665379A", "about": "“Lipid particle forming matrix, preparation and use thereof” (priority 1990, dated 1997)", "origin": "cited, not measured here", "data": [{"smiles": "CCCCCCCCCCCCCCCC(=O)OC(CC(=O)[O-])C[N+](C)(C)C", "note": "(stereo not shown) [palmitoylcarnitine]", "values": [{"measurement": "Absorption enhancement in the gut (in words)", "value": "acts as an absorption enhancer"}]}]}
